Source: ChEMBL document CHEMBL4177664, “Macrocyclic pyrrolobenzodiazepine dimers as antibody-drug conjugate payloads” (Bioorg Med Chem Lett, 2017)

Tests used:
NCI-N87 = test: Antiproliferative activity against human NCI-N87 cells after 72 hrs by MTS assay; type: functional, cell-based; details: NCI-N87, 72 h
OVCAR-3 = test: Antiproliferative activity against human OVCAR3 cells after 72 hrs by MTS assay; type: functional, cell-based; details: OVCAR-3, 72 h
NCI-H226 = test: Antiproliferative activity against human NCI-H226 cells after 72 hrs by MTS assay; type: functional, cell-based; details: NCI-H226, 72 h
HCT-116/VM46 = test: Antiproliferative activity against human HCT116/VM46 cells after 72 hrs by MTS assay; type: functional, cell-based; details: HCT-116/VM46, 72 h
HCT-116 = test: Antiproliferative activity against human HCT116 cells after 72 hrs by MTS assay; type: functional, cell-based; details: HCT-116, 72 h
[1] = Stability in mouse serum measured up to 24 hrs; type: ADME, cell-free
[2] = Stability in rat serum measured up to 24 hrs; type: ADME, cell-free
[3] = Stability in human serum measured up to 24 hrs; type: ADME, cell-free
[4] = Aqueous solubility of the compound at pH 5.5; type: physicochemical; details: aqueous medium

Structure (SMILES) | IC50 (NCI-N87) | IC50 (OVCAR-3) | IC50 (NCI-H226) | IC50 (HCT-116/VM46) | IC50 (HCT-116) | Stability [1] | Stability [2] | Stability [3] | solubility [4]
O=C1c2cc3c(cc2N=C[C@@H]2CCCN12)OCCCOc1cc2c(cc1OCCCCCCCO3)C(=O)N1CCC[C@H]1C=N2 | 4.6 nM | 3.4 nM | 8.1 nM | – | – | – | – | – | –
O=C1c2cc3c(cc2N=C[C@@H]2CCCN12)OCCCOc1cc2c(cc1OCCCCCCCCCO3)C(=O)N1CCC[C@H]1C=N2 | 8.3 nM | 7.3 nM | 8.7 nM | – | – | – | – | – | –
O=C1c2cc3c(cc2N=C[C@@H]2CCCN12)OCCCOc1cc2c(cc1OCCCCCCCCCCCCO3)C(=O)N1CCC[C@H]1C=N2 | 306 nM | 136 nM | 109 nM | – | – | – | – | – | –
CN1CCN(c2ccc(C3=CN4C(=O)c5cc6c(cc5N=C[C@@H]4C3)OCCCOc3cc4c(cc3OCCCCCCCCO6)C(=O)N3C=C(c5ccc(N)cc5)C[C@H]3C=N4)cc2)CC1 | 0.486 nM | 0.385 nM | 0.024 nM | 0.015 nM | 0.016 nM | – | – | – | –
O=C(CCN1C(=O)C=CC1=O)NCCOCCOCCOCCOCCOCCOCCOCCOCCC(=O)ON1C(=O)CCC1=O | – | – | – | – | – | Unstable | Unstable | Unstable | –
O=C1c2cc3c(cc2N=C[C@@H]2CCCN12)OCCCOc1cc2c(cc1OCCCCCCCCCCO3)C(=O)N1CCC[C@H]1C=N2 | 22 nM | 20 nM | 12 nM | – | – | – | – | – | –
COc1ccc(C2=CN3C(=O)c4cc5c(cc4N=C[C@@H]3C2)OCCCOc2cc3c(cc2OCCCCCCCCO5)C(=O)N2C=C(c4ccc(OC)cc4)C[C@H]2C=N3)cc1 | 0.621 nM | 1.82 nM | 0.993 nM | 1.05 nM | 0.167 nM | – | – | – | < 1 µg/mL
O=C1c2cc3c(cc2N=C[C@@H]2CCCN12)OCCCOc1cc2c(cc1OCCCCCCCCCCCO3)C(=O)N1CCC[C@H]1C=N2 | 146 nM | 78 nM | 69 nM | – | – | – | – | – | –
O=C1c2cc3c(cc2N=C[C@@H]2CCCN12)OCCCOc1cc2c(cc1OCCCCCCCCO3)C(=O)N1CCC[C@H]1C=N2 | 2.7 nM | 1.2 nM | 1.6 nM | – | – | – | – | – | –
CN1CCN(c2ccc(C3=CN4C(=O)c5cc6c(cc5N=C[C@@H]4C3)OCCCOc3cc4c(cc3OCCCCCCCCO6)C(=O)N3C=C(c5ccc(N6CCN(C)CC6)cc5)C[C@H]3C=N4)cc2)CC1 | 0.034 nM | 0.35 nM | 0.047 nM | 0.076 nM | 0.006 nM | – | – | – | > 698 µg/mL
COc1cc2c(cc1OCCCOc1cc3c(cc1OC)C(=O)N1C=C(c4ccccc4)C[C@H]1C=N3)N=C[C@@H]1CC(c3ccccc3)=CN1C2=O | 0.152 nM | 0.126 nM | 0.117 nM | – | – | – | – | – | –
COc1ccc(C2=CN3C(=O)c4cc5c(cc4N=C[C@@H]3C2)OCCCOc2cc3c(cc2OCCCCCCCCO5)C(=O)N2C=C(c4ccc(N)cc4)C[C@H]2C=N3)cc1 | 0.559 nM | 0.311 nM | 0.355 nM | 0.36 nM | 0.063 nM | – | – | – | –
O=C1c2cc3c(cc2N=C[C@@H]2CC(c4ccccc4)=CN12)OCCCOc1cc2c(cc1OCCOCCOCCO3)C(=O)N1C=C(c3ccccc3)C[C@H]1C=N2 | 1.54 nM | 1.7 nM | 1.07 nM | 6.44 nM | 0.129 nM | – | – | – | < 1 µg/mL
CC1=CN2C(=O)c3cc4c(cc3N=C[C@@H]2C1)OCCCOc1cc2c(cc1OCCCCCCCCO4)C(=O)N1C=C(c3ccc(N)cc3)C[C@H]1C=N2 | 1.36 nM | 1.24 nM | 0.655 nM | 1.22 nM | 0.135 nM | – | – | – | –
COc1cc2c(cc1OCCCOc1cc3c(cc1OC)C(=O)N1CCC[C@H]1C=N3)N=C[C@@H]1CCCN1C2=O [DSB-120] | 63 nM | 56 nM | 70 nM | – | – | – | – | – | –
